According to patent US20250212873A1, “VOLATILE HDAC INHIBITORS FOR THERAPEUTIC AND PLANT APPLICATIONS” (The Regents of the University of California, priority 2022, published 2025):
Entries after “also recorded” stand apart in the source; their conditions may differ.

How the values were obtained:
[1] = test system: PC3 Cancer cell line; assay: Cancer cell viability assay, PC3; format: cell-based
Experimental: Cells were maintained in a 37° C. incubator with 5% CO2 throughout the experiment. Compound stocks were dissolved in 10% DMSO, but final concentrations were made fresh in complete media as needed. 10% DMSO solvent was used as control in complete media. Cells were seeded onto 12-well plates and allowed 12-24 hours until treatment began to allow cells to adhere to wells. This was followed by minimum 5-day treatment of compounds, changing the media with treatment every 48 hours. Cell lines A549, PC3, and SK-MEL-5 were seeded at 8000 cells/well which would provide 80-100% confluency after 6-day growth. SH-SY5Y was seeded at 8000 cells/well then 16,000 cells/well due to slower growth and given at least 10 days for sufficient growth. After allotted growth times, cell counts were performed via Countess™ automated cell counter. All assays were completed with a minimum of triplicate replicates for all conditions and analyzed through GraphPad Prism One-way ANOVA for significance.

[2] = test system: Arabidopsis thaliana seedlings; assay: Odor Exposure assay, Arabidopsis thaliana seedlings (root and leaf development); format: in vivo; conditions: 10-fold lower dose (0.1% solution headspace)
[3] = test system: Arabidopsis thaliana seedlings; assay: as above; format: in vivo
Experimental: The Odor Exposure assay consists of controlled exposure of volatile odor compounds to model plant Arabidopsis within enclosed aquariums and similar growth conditions (23° C. with a 12-hour light/dark cycle). For Arabidopsis, seedlings were aligned on agar plates for growth after a 4-day cold treatment process. The agar plates with seedlings were then placed in enclosed aquariums with moist paper towels soaked in 10 ml of DI water for humidity. The plates were placed along the wall, approximately 12 cm from odor dispensers which resided in the center of the glass tank.
The test compound odor dispensers, consisting of (60×15 mm) polystyrene Petri dishes containing 2 ml of 1% v/v in PO, are replaced at the 3.5, 5, and 6-day time mark during the 7-day experiment. Root growth is marked during each time mark and the plates were imaged. The plants are to be collected after the 7-day exposure, photographed, and the leaves/roots carefully dissected separated, flash frozen in liquid nitrogen, and preserved for future sequencing. Root growth is measured using ImageJ.
In order to study the physiological effects of long-term exposure to microbial volatiles the model system Arabidopsis was exposed for […] to diacetyl, a volatile chemical emitted by fermentation by yeast or microbial degradation in the soil associated with roots (R. J. Morcillo et al., EMBO J 39, e102602 (2020); M. A. Farag, et al., Phytochemistry 67, 2262-2268 (2006); and C. M. Ryu et al., P Natl Acad Sci USA 100, 4927-4932 (2003). The Odor Exposure assay consisted of controlled exposure of volatile HDAC inhibiting compounds to model plant Arabidopsis within enclosed aquariums and similar growth conditions. The test compound odor cartridges, consisting of 60×15 mm polystyrene Petri dishes containing 2 ml of indicated concentration in Paraffin Oil, were replaced at the 3.5, 5, and 6-day time mark during the 7-day experiment (FIG. 1A, left). In separate experiments the weight loss from the odor cartridges over time was measured and used it to calculate the concentration of diacetyl in the glass chambers in parts per million (FIG. 1A, right).
In order to directly evaluate whether exposure to vapors of the four HDAC-inhibitory VOCs affect root development, we performed a set of experiments using A. thaliana seedlings as before. Solutions for each of the four chemicals on a small petri dish were placed away from the seedlings growing in agar plate and enclosed in glass tank. The Root tips were marked at specified days post treatment start and photographs analyzed. The plants were collected after the 7-day exposure, photographed, and the roots were separated. Detailed measurements were made from the photos using ImageJ and the root length and numbers of lateral roots quantified at day 3.5 and day 7 after start if the treatment (FIG. 1B).
The Odor Exposure assay consists of controlled exposure of volatile odor compounds to model plant Arabidopsis within enclosed aquariums and similar growth conditions (23° C. with a 12-hour light/dark cycle). The test compound odor cartridges, consisting of (60×15 mm) polystyrene Petri dishes containing 2 ml of 1% v/v in paraffin oil (PO), were replaced at the 3.5, 5, and 6-day time mark during the 7-day experiment. Root growth was marked during each time point and the plates were imaged. Numbers of true leaves were also counted. The plants are to be collected after the 7-day exposure, photographed, and the leaves/roots carefully dissected separated, flash frozen in liquid nitrogen, and preserved for future sequencing. Root growth is measured using ImageJ.

[4] = test system: Arabidopsis thaliana roots; assay: RNA-Seq of roots of diacetyl vapor exposed Arabidopsis seedlings; format: in vivo
Experimental: In order to understand the molecular changes occurring with the volatile exposure and possibly underlying this developmental phenotype, an RNA-Seq analysis of the roots in diacetyl exposed vs control was performed. A large number of differentially expressed genes (DEGs) was found in the roots of the diacetyl vapor exposed Arabidopsis. 5197 differentially expressed genes (DEGs) (false discovery rate, FDR<0.05) were identified in the root transcriptome of diacetyl-exposed seedlings compared to control.
A. thaliana plants (Col-0) were grown in an Agar medium were synchronized to germinate using pre-treatment in cold. Exposure experiments were started using plants the plates when they were 11 days old and placed in a 10-gallon glass aquarium as a chamber along with a petri dish containing 1 ml of chemical dissolved in PO or PO alone were placed at the other side of the container. After the desired exposure, the roots were separated, and a Trizol-based RNA isolation was carried out as above. Two biological replicates were performed for each condition, with an average of 68,355,820 reads/replicate, with an average of 95% mapped. Multiplexed libraries were made from total RNA input using the Illumina TruSeq RNA sample preparation kit (v2) and 50 bps single-end sequencing was done using the NextSeq500.

[5] = 7-day exposure, headspace of 1% v/v in Paraffin oil

## CC(=O)C(C)=O [2,3-butanedione]
[1]
  inhibition of prostate cancer (PC3) cell line, summary: has potential in inhibiting
[1]; 33 uM, triplicates
  changes in proliferation, PC3: No Significant changes in proliferations
[2]
  change from solvent treated seedlings in every growth category: significant change
[3]; 3.5-day exposure, headspace of 1% v/v in Paraffin oil
  root growth: significant root growth inhibition
[3]; [5]
  lateral root growth (number of lateral roots): increase; also recorded: notable lateral root promotion; also recorded: significant phenotypic changes
  leaf development (number of large / true leaves): changes in the number of true leaf development/growth; also recorded: significant phenotypic changes
[3]; 7-day exposure, headspace of 1% v/v in Paraffin oil, listed as 2,3-butandione
  lateral root growth (number of lateral roots): promoted lateral root growth
[3]; 7-day exposure, headspace of 1% v/v in Paraffin oil, listed as diacetyl
  leaf development (number of large / true leaves): significant decreases
[3]; 7-day exposure, headspace of solution in Paraffin oil
  root growth (primary root length): lack of growth
[3]; highest dose, 7-day exposure
  lateral roots, number relative to control: ~3 times
[4]; 1% (v/v) headspace, 7 days, FDR<0.05
  differentially expressed genes (DEGs) in the root transcriptome: 5197 genes
[4]; log2 fold-change<-1, FDR<0.05
  significantly down-regulated genes in roots: 2572 genes
[4]; log2 fold-change>1, FDR<0.05
  significantly up-regulated genes in roots: 2625 genes
